{"source": "paper PMC4747835", "about": "(Journal of controlled release : official journal of the …, 2015)", "key": {"[1]": {"settings": "rat, in vivo"}, "in vivo": {"test": "in vivo", "settings": "male, Sprague-Dawley, rat, 100 ug/kg"}, "[2]": {"settings": "in vivo; cited from earlier work"}}, "note": "Where two headings read alike, the source gives them in different places.", "data": [{"smiles": "CSCC[C@@H]1NC(=O)[C@H](CC(C)C)NC(=O)[C@H](CCCNC(=N)N)NC(=O)[C@H](CO)NC(=O)[C@@H]2CSSC[C@@H]3NC(=O)[C@H](CO)NC(=O)CNC(=O)[C@H]([C@@H](C)O)NC(=O)[C@H](CSSC[C@H](N)C(=O)N[C@@H](CCCCN)C(=O)NCC(=O)N[C@@H](CCCCN)C(=O)NCC(=O)N[C@@H](C)C(=O)N[C@@H](CCCCN)C(=O)N2)NC(=O)[C@H](CSSC[C@@H](C(N)=O)NC(=O)[C@H](CCCCN)NC(=O)CNC(=O)[C@H](CO)NC(=O)[C@H](CCCNC(=N)N)NC3=O)NC(=O)[C@H](CC(=O)O)NC(=O)[C@H](Cc2ccc(O)cc2)NC1=O", "note": "[ziconotide, Ziconotide]", "values": [{"measurement": "AUC0-6 in CSF", "setting": "[1]", "result": "1.57 ± 0.44", "unit": "µg·min/mL"}, {"measurement": "Cmax in CSF", "setting": "[1]", "result": "33.55 ± 7.39", "unit": "ng/mL"}, {"measurement": "Tmax in CSF", "setting": "[1]", "result": 0.25, "unit": "h"}, {"measurement": "bioavailability (AUC0-6) in CSF, fold less than i.v administration", "setting": "[1]", "result": "~ 3 fold"}, {"measurement": "elimination rate constant in CSF", "setting": "[1]", "result": "1.01 ± 0.34", "unit": "h⁻¹"}, {"measurement": "AUC0-6 in CSF", "setting": "[1]; iv", "result": "4.98 ± 0.98", "unit": "µg·min/mL"}, {"measurement": "Cmax in CSF", "setting": "[1]; iv", "result": "37.78 ± 6.8", "unit": "ng/mL"}, {"measurement": "Tmax in CSF", "setting": "[1]; iv", "result": 2, "unit": "h"}, {"measurement": "level at 0.25 h", "setting": "in vivo", "result": "992 ± 76.4", "unit": "ng/mL"}, {"measurement": "occurrence of meningitis", "setting": "[2]", "result": 3, "unit": "%"}]}]}
